Molecular target: T1, CCR2 receptor (Homo sapiens, UniProt P41597)
T1 construct: host or cells: THP-1 (human monocytic cell line)
T1 sequence (P41597 1-360 isoform P41597-2): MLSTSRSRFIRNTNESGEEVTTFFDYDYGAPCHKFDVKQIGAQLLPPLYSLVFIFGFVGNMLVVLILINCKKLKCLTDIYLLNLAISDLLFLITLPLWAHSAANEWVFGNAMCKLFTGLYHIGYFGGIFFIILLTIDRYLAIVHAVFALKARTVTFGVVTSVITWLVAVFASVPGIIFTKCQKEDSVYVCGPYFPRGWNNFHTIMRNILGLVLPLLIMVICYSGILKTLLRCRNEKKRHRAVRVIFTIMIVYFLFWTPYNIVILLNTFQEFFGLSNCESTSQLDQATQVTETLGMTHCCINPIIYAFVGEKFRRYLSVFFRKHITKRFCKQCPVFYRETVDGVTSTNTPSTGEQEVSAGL
Test: Inhibition of MCP-1 induced Ca-flux in human THP-1 cells
Format: cell-based
Details: inhibition of specific MCP-1 induced Ca2+ flux, 10^-7 M hMCP-1, 20 minutes pre-incubation, FLIPR, Fluo-3 AM
Experimental: Inhibition of MCP-1 Induced Ca-flux in Human THP-1 Cells
MCP-1 binding to the CCR2 receptor induces a rapid and transient intracellular release of Ca^2+ (secondary messenger) in several cell lines (Charo et al, PNAS 1994). Free Ca^2+ levels can be measured using a Ca^2+ sensitive dye. When the CCR2 receptor is blocked with a CCR2 receptor antagonist, the MCP-1 induced release of Ca^2+ is inhibited.
Human THP-1 cells (monocytic cell line, ATCC TIB-202) were cultured in RPMI 1640 medium supplemented with 10% fetal calf serum (FCS), 1% L-Glutamine, penicillin (50 U/ml) and streptomycin (50 μg/ml) (all GIBCO BRL, Gent). After centrifugation, cells were loaded for 30 minutes with the Ca^2+ sensitive fluorescent dye Fluo-3 AM (Molecular Probes, Leiden, Netherlands) (2 million cells/ml in RPMI medium containing 4 μM Fluo-3 AM, 20 mM HEPES, 0.1% Bovine Serum Albumin (BSA) and 5 mM probenecid). Excess dye was removed by 3-fold washing with buffer (5 mM HEPES, 140 mM NaCl, 1 mM MgCl2, 5 mM KCl, 10 mM glucose, 2.5 mM probenecid, 1.25 mM CaCl2, 0.1% BSA; all further incubations were done in this buffer). Cells were plated at a density of 150 000 cells/well in dark-wall 96-well plates (Costar, Cambridge, Mass.) and sedimented by centrifugation (1 minute). The cells were pre-incubated for 20 minutes with test compound. Then, 10^−7 M hMCP-1 (Bachem, Bubendorf, Switserland) was added. Changes in intracellular free Ca^2+ concentration were measured using the Fluorescent Imaging Plate Reader (FLIPR, Molecular Devices, Munchen, Germany). Fluorescence was recorded every second from 10 seconds before the addition of the MCP-1 till 2 minutes after the addition (first minute: 60 records with 1 second intervals, second minute 20 records with 3 second intervals). The maximal fluorescence obtained during this time frame was used for further calculations.
Table 3 reports pIC50 values obtained in the above-described test for compounds of formula (I). pIC50 defines −log IC50 wherein IC50 is the molar concentration of the test compound which inhibits 50% of specific MCP-1 induced Ca^2+ flux.

IC50 [nM] | Structure (SMILES)
200 | CCC(c1ccc(Cl)c(Cl)c1)n1c(C(=O)OC)c(NC(=O)c2cncnc2)[nH]c1=S (stereo not drawn) [Compound 9]
158 | CCC(c1ccc(Cl)c(Cl)c1)n1c(C(=O)OC)c(NC(=O)N2CCCCC2)[nH]c1=S (stereo not drawn) [Compound 23]
398 | CCC(c1ccc(Cl)c(Cl)c1)n1c(C(=O)OC)c(NC(=O)N2CCN(Cc3ccccc3)CC2)[nH]c1=S (stereo not drawn) [Compound 22]
251 | CCC(c1ccc(Cl)c(Cl)c1)n1c(C(=O)OC)c(NC(=O)NCC(OC)OC)[nH]c1=S (stereo not drawn) [Compound 16]
200 | CCC(c1ccc(Cl)c(Cl)c1)n1c(C(=O)OC)c(NC(=O)c2ccccc2)[nH]c1=S (stereo not drawn) [Compound 10]
631 | CCC(c1ccc(Cl)c(Cl)c1)n1c(C(=O)OC)c(NC(=O)NCc2ccccc2)[nH]c1=S (stereo not drawn) [Compound 17]
126 | CCC(c1ccc(Cl)c(Cl)c1)n1c(C(=O)OC)c(NC(=O)N2CCCC2)[nH]c1=S (stereo not drawn) [Compound 21]
126 | CCC(=O)Nc1[nH]c(=S)n(C(CC)c2ccc(Cl)c(Cl)c2)c1C(=O)OC (stereo not drawn) [Compound 4]
158 | CCC(c1ccc(Cl)c(Cl)c1)n1c(C(=O)OC)c(NC(=O)c2cc(C)on2)[nH]c1=S (stereo not drawn) [Compound 7]
79.4 | CCC(c1ccc(Cl)c(Cl)c1)n1c(C(=O)OC)c(NC(=O)C2CCOC2)[nH]c1=S (stereo not drawn) [Compound 13]
39.8 | CCC(c1ccc(Cl)c(Cl)c1)n1c(C(=O)OC)c(NC(=O)c2ccccn2)[nH]c1=S (stereo not drawn) [Compound 12]
79.4 | CCC(c1ccc(Cl)c(Cl)c1)n1c(C(=O)OC)c(NC(=O)c2cnccn2)[nH]c1=S (stereo not drawn) [Compound 3]
200 | CCC(c1ccc(Cl)c(Cl)c1)n1c(C(=O)OC)c(NC(=O)c2cccnc2)[nH]c1=S (stereo not drawn) [Compound 5]
126 | CCC(c1ccc(Cl)c(Cl)c1)n1c(C(=O)OC)c(NC(=O)c2ccncc2)[nH]c1=S (stereo not drawn) [Compound 6]
79.4 | CCC(c1ccc(Cl)c(Cl)c1)n1c(C(=O)OC)c(NC(=O)C2CCCO2)[nH]c1=S (stereo not drawn) [Compound 19]
25.1 | CCC(c1ccc(Cl)c(Cl)c1)n1c(C(=O)OC)c(NC(=O)c2ccco2)[nH]c1=S (stereo not drawn) [Compound 11]

Structure (SMILES) | IC50 [nM]
CCC(c1ccc(Cl)c(Cl)c1)n1c(C(=O)OC)c(NC(=O)c2nonc2C)[nH]c1=S (stereo not drawn) [Compound 8] | 501
CCC(c1ccc(Cl)c(Cl)c1)n1c(C(=O)OC)c(NC(=O)N2CCN(C)CC2)[nH]c1=S (stereo not drawn) [Compound 20] | 316
CCC(c1ccc(Cl)c(Cl)c1)n1c(C(=O)OC)c(NC(C)=O)[nH]c1=S (stereo not drawn) [Compound 2] | 50.1
CCC(c1ccc(Cl)c(Cl)c1)n1c(C(=O)OC)c(NC(=O)OC)[nH]c1=S (stereo not drawn) [Compound 15] | 15.8
CCC(c1ccc(Cl)c(Cl)c1)n1c(C(=O)OC)c(NC(=O)N2CCOCC2)[nH]c1=S (stereo not drawn) [Compound 18] | 100
CCC(c1ccc(Cl)c(Cl)c1)n1c(C(=O)OC)c(N)[nH]c1=S (stereo not drawn) [Compound 1] | 63.1

System: not given
Test: not given
Details: not given

Structure (SMILES) | melting point [°C]
CCC(c1ccc(Cl)c(Cl)c1)n1c(C(=O)OC)c(NC(=O)c2cnccn2)[nH]c1=S (stereo not drawn) [Compound 3] | 196.9 to 198.6
CCC(c1ccc(Cl)c(Cl)c1)n1c(C(=O)OC)c(N)[nH]c1=S (stereo not drawn) [Compound 1] | 183.9 to 184

Reference: patent US20070167456A1, “Mercaptoimidazoles as ccr2 receptor antagonists” (priority 2004, published 2007)
